Target: T1, human CRHR2-alpha (Homo sapiens, UniProt Q13324)
T1 sequence (Q13324 1-411): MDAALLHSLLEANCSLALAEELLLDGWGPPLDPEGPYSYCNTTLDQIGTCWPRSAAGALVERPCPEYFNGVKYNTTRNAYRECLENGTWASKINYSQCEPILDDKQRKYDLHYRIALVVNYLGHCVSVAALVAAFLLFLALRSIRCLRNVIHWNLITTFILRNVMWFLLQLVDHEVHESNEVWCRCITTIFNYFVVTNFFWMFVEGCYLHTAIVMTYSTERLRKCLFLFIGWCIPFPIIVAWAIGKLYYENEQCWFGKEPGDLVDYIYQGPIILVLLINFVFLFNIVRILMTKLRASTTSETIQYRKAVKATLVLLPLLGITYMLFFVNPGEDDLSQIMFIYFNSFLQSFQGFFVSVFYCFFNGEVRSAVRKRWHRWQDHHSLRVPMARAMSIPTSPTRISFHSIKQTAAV
Assay: cAMP functional assay for human CRHR2 (LANCE Ultra cAMP, TR-FRET)
Type: cell-based
Conditions: CHO-K1 cells expressing human CRHR2-alpha, agonist human urocortin2 at EC80, cAMP; read-out: IC50 against CRHR2
Outline: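 IC50 values derive from percent inhibition of EC80 agonist-stimulated cAMP in CHO-K1 transfectants, with 0.5 mM IBMX present; the CRHR2 line was stimulated by human urocortin2 and the CRHR1 line by CRF.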

IC50, < 300 nM:
Cc1ncc(Cl)cc1C(=O)N[C@H]1CC[C@H](Cn2c(=O)n(-c3cnc4[nH]nc(C)c4c3)c3ccccc32)CC1 [Example 271, 5-chloro-2-methyl-N-((1r,4r)-4-((3-(3-methyl-1H-pyrazolo[3,4-b]pyridin-5-yl)-2-oxo-2,3-dihydro-1H-benzo[d]imidazol-1-yl)methyl)cyclohexyl)nicotinamide]
CNC(=O)c1ccc(-n2c(=O)n(C[C@H]3CC[C@H](NC(=O)c4cc(Cl)cnc4C(F)(F)F)CC3)c3ccccc32)cn1 [Example 240, 5-(3-(((1r,4r)-4-(5-chloro-2-(trifluoromethyl)nicotina-mido)cyclohexyl)methyl)-2-oxo-2,3-dihydro-1H-benzo [d]imidazol-1-yl)-N-methylpicolinamide]
Cc1ncc(Cl)cc1C(=O)N[C@H]1CC[C@H](Cn2c(=O)n(-c3cnccc3C#N)c3ccccc32)CC1 [Example 248, 5-chloro-N-((1r,4r)-4-((3-(4-cyanopyridin-3-yl)-2-oxo-2,3-dihydro-1H-benzo[d]imidazol-1-yl)methyl)cyclohexyl)-2-methylnicotinamide]
O=C(N[C@H]1CC[C@H](Cn2c(=O)n(-c3ccnc(-c4cnco4)c3)c3ccccc32)CC1)c1cc(Cl)cnc1C(F)F [Example 687, 5-chloro-2-(difluoromethyl)-N-((1r,4r)-4-((3-(2-(oxazol-5-yl)pyridin-4-yl)-2-oxo-2,3-dihydro-1H-benzo[d]imidazol-1-yl)methyl)cyclohexyl) nicotinamide]
Cc1cc(-n2c(=O)n(C[C@H]3CC[C@H](NC(=O)c4cc(Cl)cnc4C(F)(F)F)CC3)c3ccccc32)ccn1 [Example 316, 5-chloro-N-((1r,4r)-4-((3-(2-methylpyridin-4-yl)-2-oxo-2,3-dihydro-1H-benzo [d]imidazol-1-yl)methyl)cyclohexyl)-2-(trifluoro-methyl)nicotinamide]
Cc1ncc(Cl)cc1C(=O)N[C@H]1CC[C@H](Cn2c(=O)n(-c3ccc(Br)nc3)c3ccccc32)CC1 [Example 66, N((1r,4r)-4-((3-(6-bromopyridin-3-yl)-2-oxo-2,3-dihydro-1H-benzo[d]imidazol-1-yl)methyl)cyclohexyl)-5-chloro-2-methylnicotinamide]
CNC(=O)c1ccc(-n2c(=O)n(C[C@H]3CC[C@H](NC(=O)c4cc(Cl)cnc4CF)CC3)c3ccccc32)cn1 [Example 582, 5-(3-(((1r,4r)-4-(5-chloro-2-(fluoromethyl)nicotina-mido)cyclohexyl)methyl)-2-oxo-2,3-dihydro-1H-benzo[d]imidazol-1-yl)-N-methylpicolinamide]
Cc1ncc(Cl)cc1C(=O)N[C@H]1CC[C@H](Cn2c(=O)n(-c3ccn4cncc4c3)c3ccccc32)CC1 [Example 296, 5-chloro-N-((1r,4r)-4-((3-(imidazo[1,5-a]pyridin-7-yl)-2-oxo-2,3-dihydro-1H-benzo[d]imidazol-1-yl)methyl)cyclohexyl)-2-methylnicotinamide]
O=C(N[C@H]1CC[C@H](Cn2c(=O)n(-c3ccc(NCC(F)(F)F)nc3)c3ccccc32)CC1)c1cc(Cl)cnc1C(F)F [Example 463, 5-chloro-2-(difluoromethyl)-N-((1r,4r)-4-((2-oxo-3-(6-((2,2,2-trifluoroethyl)amino)pyridin-3-yl)-2,3-dihydro-1H-benzo[d]imidazol-1-yl)methyl)cyclohexyl)nicotinamide]
CNC(=O)c1ccc(-n2c(=O)n(C[C@H]3CC[C@H](NC(=O)c4cc(Cl)cnc4N(C)C)CC3)c3ccccc32)cn1 [Example 328, 5-(3-(((1r,4r)-4-(5-chloro-2-(dimethylamino)nicotinamido)cyclohexyl)methyl)-2-oxo-2,3-dihydro-1H-benzo[d]imidazol-1-yl)-N-methyl-picolinamide]
Cc1ncc(Cl)cc1C(=O)N[C@H]1CC[C@H](Cn2c(=O)n(-c3ccc4c(CO)noc4c3)c3ccccc32)CC1 [Example 261, 5-chloro-N-((1r,4r)-4-((3-(3-(hydroxymethyl)benzo[d]isoxazol-6-yl)-2-oxo-2,3-dihydro-1H-benzo[d]imidazol-1-yl)methyl)cyclohexyl)-2-methylnicotinamide]
O=C(N[C@H]1CC[C@H](Cn2c(=O)n(-c3ccccc3Cl)c3ccncc32)CC1)c1cc(Cl)cnc1C(F)F [Example 367, 5-chloro-N-((1r,4r)-4-((1-(2-chlorophenyl)-2-oxo-1H-imidazo[4,5-c]pyridin-3(2H)-yl)methyl)cyclohexyl)-2-(difluoromethyl)nicotinamide]
Cc1ncc(Cl)cc1C(=O)N[C@H]1CC[C@H](Cn2c(=O)n(-c3cc(N(C)C)ccc3C#N)c3ccccc32)CC1 [Example 273, 5-chloro-N-((1r,4r)-4-((3-(2-cyano-5-(dimethylamino)phenyl)-2-oxo-2,3-dihydro-1H-benzo[d]imidazol-1-yl)methyl)cyclohexyl)-2-methylnicotinamide]
CN(C)c1ccc(-n2c(=O)n(C[C@H]3CC[C@H](NC(=O)c4cc(Cl)cnc4C(F)F)CC3)c3ccccc32)cn1 [Example 381, 5-chloro-2-(difluoromethyl)-N-((1r,4r)-4-((3-(6-(dimethyl-amino)pyridin-3-yl)-2-oxo-2,3-dihydro-1H-benzo[d]imidazol-1-yl)methyl)cyclo-hexyl)nicotinamide]
COCCOc1ccc(-n2c(=O)n(C[C@H]3CC[C@H](NC(=O)c4cc(Cl)cnc4C(F)(F)F)CC3)c3ccccc32)cn1 [Example 416, 5-chloro-N-((1r,4r)-4-((3-(6-(2-methoxyethoxy)pyridin-3-yl)-2-oxo-2,3-dihydro-1H-benzo [d]imidazol-1-yl)methyl)cyclo-hexyl)-2-(trifluoromethyl) nicotinamide]
Cc1ncc(Cl)cc1C(=O)N[C@H]1CC[C@H](Cn2c(=O)n(-c3cccc(-n4cccn4)c3)c3ccccc32)CC1 [Example 541, N-((1r,4r)-4-((3-(3-(1H-pyrazol-1-yl)phenyl)-2-oxo-2,3-dihydro-1H-benzo[d]imidazol-1-yl)methyl)cyclohexyl)-5-chloro-2-methylnicotinamide]
CN(C)c1ccc(-n2c(=O)n(C[C@H]3CC[C@H](NC(=O)c4cc(Cl)cnc4C(F)F)CC3)c3ccccc32)nc1 [Example 648, 5-chloro-2-(difluoromethyl)-N-((1r,4r)-4-((3-(5-(dimethyl-amino)pyridin-2-yl)-2-oxo-2,3-dihydro-1H-benzo[d]imidazol-1-yl)methyl)cyclo-hexyl)nicotinamide]
Cc1ncc(Cl)cc1C(=O)N[C@H]1CC[C@H](Cn2c(=O)n(-c3ccc(-c4ccon4)cc3)c3ccccc32)CC1 [Example 445, 5-chloro-N-((1r,4r)-4-((3-(4-(isoxazol-3-yl)phenyl)-2-oxo-2,3-dihydro-1H-benzo[d]imidazol-1-yl)methyl)cyclo-hexyl)-2-methylnicotinamide]
Cc1cc(-n2c(=O)n(C[C@H]3CC[C@H](NC(=O)c4cc(Cl)cnc4C)CC3)c3ccccc32)cnc1C [Example 119, 5-chloro-N-((1r,4r)-4-((3-(5,6-dimethylpyridin-3-yl)-2-oxo-2,3-dihydro-1H-benzo[d]imidazol-1-yl)methyl)cyclo-hexyl)-2-methylnicotinamide]
Cc1ncc(Cl)cc1C(=O)N[C@H]1CC[C@H](Cn2c(=O)n(-c3cnc4cc[nH]c4c3)c3ccccc32)CC1 [Example 158, 5-chloro-2-methyl-N-((1r,4r)-4-((2-oxo-3-(1H-pyrrolo[3,2-b]pyridin-6-yl)-2,3-dihydro-1H-benzo[d]imidazol-1-yl)methyl)cyclohexyl)nicotinamide]
Cc1ncc(Cl)cc1C(=O)N[C@H]1CC[C@H](Cn2c(=O)n(-c3cccc(-c4ccn(C)n4)c3)c3ccccc32)CC1 [Example 651, 5-chloro-2-methyl-N-((1r,4r)-4-((3-(3-(1-methyl-1H-pyrazol-3-yl)phenyl)-2-oxo-2,3-dihydro-1H-benzo [d]imidazol-1-yl)methyl)cyclohexyl)nicotinamide]
Cc1ncc(Cl)cc1C(=O)N[C@H]1CC[C@H](Cn2c(=O)n(-c3ccc(F)cc3F)c3ccccc32)CC1 [Example 46, 5-chloro-N-((1r,4r)-4-((3-(2,4-difluorophenyl)-2-oxo-2,3-dihydro-1H-benzo[d]imidazol-1-yl)methyl)cyclohexyl)-2-methylnicotinamide]
Cn1ccnc1-c1ccc(-n2c(=O)n(C[C@H]3CC[C@H](NC(=O)c4cc(Cl)cnc4C(F)F)CC3)c3ccccc32)cc1 [Example 567, 5-chloro-2-(difluoromethyl)-N-((1r,4r)-4-((3-(4-(1-methyl-1H-imidazol-2-yl)phenyl)-2-oxo-2,3-dihydro-1H-benzo[d]imidazol-1-yl)methyl)cyclo-hexyl)nicotinamide]

— patent US11802120B2, “Fused cyclic urea derivatives as CRHR2 antagonist” (RaQualia Pharma Inc., priority 2018, dated 2023)
